Reference: a melting point compilation (Tetko et al.)

SMILES	melting point
CCOP(=O)(OCC)Oc1c2cc(C(C)(C)C)cc1Cc1cc(C(C)(C)C)cc(c1O)Cc1cc(C(C)(C)C)cc(c1OP(=O)(OCC)OCC)Cc1cc(C(C)(C)C)cc(c1O)C2	203 to 205 °C
COC(=O)C1(C(=O)OC)Cc2cccc(OC)c2C(=O)O1	88.7 to 89.7 °C
O=C(O)C1CC1(F)F (centres undefined)	58 °C
Cc1cc(C)n(N=Cc2ccccc2)c(=O)c1C#N	194 to 195 °C
NC(=O)CN1CCCC1=O	152 °C
N#Cc1ccc(OC(F)F)cc1	40 to 42 °C
CCCCCC(C)CO (centres undefined)	-112 °C
CC(C)(C)N(NC(=O)c1ccccc1)C(=O)c1ccccc1[N+](=O)[O-]	182 °C
CNc1ccc2cc3ccc4c(c3nc2c1CO)COCN4	105 °C
CCC12CC3CC(CC(Br)(C3)C1)C2	23 to 24 °C
O/N=C1\C(c2ccccc2)=Nc2ccccc21	260 °C
CN(C(=O)N(C)c1ccccc1)c1ccccc1	122 °C
COc1cc(C(=O)OCCCN(C)CCN(C)CCCOC(=O)c2cc(OC)c(OC)c(OC)c2)cc(OC)c1OC	76 °C
CC1CCC(C(C)C)/C(=N\NC(N)=O)C1 (centres undefined)	216 to 217 °C
CCc1ncc[nH]1	83 to 87 °C
CCOc1cccc(/C=C/C(=O)O)c1	133 °C
[O-][P+](c1ccccc1)(c1ccccc1)C1Sc2ccccc2S1	181 °C
CCOc1nc2ccccc2c(=O)n1Cc1ccccc1	96 to 97 °C
CCCOC1CCC2(C)C(CCC3C2CCC2(C)C(OCCC)CCC32)C1 (centres undefined)	112 to 135 °C
CC(C)=CCCC(C)=CCCC(C)=CCO	25 °C
CCOC(=O)c1nn(-c2ccc(C)cc2)c(C)c1C(=O)c1noc(-c2ccc(Br)cc2)c1S(=O)(=O)c1ccccc1	170 °C
COC(=O)c1cc(C)on1	92 °C
CC1=C(C)C(=O)C(C(CCCCCC(=O)O)c2ccccc2)=C(C)C1=O (centres undefined)	128 °C
CC(=O)NCCN	47 °C
COC(=O)C1(C(=O)OC)Cc2ccc(C)cc2C(=O)O1	120 to 121 °C

SMILES	melting point
C=C1CC2CC(OC(=O)c3ccccc3)CCC2(C)C2CCC3(C)C(OC(=O)c4ccccc4)CCC3C12 (centres undefined)	192 °C
CC(C)(c1cc(Br)c(O)c(Br)c1)c1cc(Br)c(O)c(Br)c1	181 °C
C=C(C)C(=O)Cl	-60 °C
CCO[Si](c1ccccc1)(c1ccccc1)c1ccccc1	65 °C
CCOC(=O)c1ccc(N=C=S)cc1	57 °C
S=C=Nc1ccc(Cl)cc1Cl	38 °C
NCC(O)CN	43 °C
Cc1ccc(Sc2ncccc2C(N)=O)cc1	205 to 207 °C
COc1cc(-c2n[nH]c(=S)n2/N=C/c2ccccc2O)cc(OC)c1OC	220 to 222 °C
CCC(C(=O)Nc1ccc(C)cc1)c1ccc(C)cc1 (centres undefined)	118 °C
CCn1c2c(c3cc(OC)ccc31)CCc1cc(OC)ccc1-2	145 to 147 °C
C[Si](C)(C)N=C=N[Si](C)(C)C	-23 °C
CC(=O)N(c1onc(C)c1C)S(=O)(=O)c1ccc(N)cc1	194 °C
COc1ccccc1C(=O)Oc1ccc(/C=C/C(=O)c2ccccc2)cc1	115 °C
N#CCCCCCN	-31.4 °C
CCCCCCCCC=CCCCCCCCC(=O)OCCCC	-26.5 °C
CC1CCC2(C)CCC3(C)C(=CCC4C5(C)CCC(O)C(C)(C)C5CCC43C)C2C1C (centres undefined)	186 °C
O=CC(F)(F)C(F)(F)C(F)(F)C(F)(F)C(F)(F)C(F)(F)C(F)(F)C(F)(F)C=O	68 to 70.5 °C
O=C(O)C(O)c1cccc(F)c1 (centres undefined)	96 °C
CCCCCCCCCCCCCCCCCN	49 °C
Cc1cc(C(=O)O)c(-c2ccccc2)o1	145 to 147 °C
CCOc1ccc(C(C)O)cc1 (centres undefined)	47 °C
CCCCCCCC(=O)OCC(COC(=O)CCCCCCC)OC(=O)CCCCCCC	10 °C
Cc1cc(C)c(-c2cc(C)[nH]n2)c(C)c1	128 to 130 °C
Nc1nc(=O)c2[nH]nnc2[nH]1	300 °C

SMILES	melting point
COc1cc(C2c3cc4c(cc3C(O)C3COC(=O)C23)OCO4)cc(OC)c1OC (centres undefined)	228 °C
O=[N+]([O-])C(Br)(Br)Br	10 °C
O=[N+]([O-])c1ccc(N2CCCNCC2)nc1	111 to 112 °C
C[C@]12CCC(=O)C=C1CC[C@@H]1[C@@H]2CC[C@]2(C)C(=O)CC[C@@]12O	256 to 260 °C
O=C(O)CCCc1ccc(F)cc1	45 to 47 °C
Cn1c(=O)c(C2=NNC(=O)C2)c(O)c2ccccc21	287 °C
Cc1cc(C(=O)N2CCN(c3ccccc3)CC2)no1	101 to 103 °C
O=C1c2cc([N+](=O)[O-])ccc2-c2ccc([N+](=O)[O-])cc21	294 °C
Cc1cc(C(F)(F)F)n2nc(N)c(/N=N/c3cccc(C(F)(F)F)c3)c2n1	171 °C
Cc1cc(Br)ncc1I	51 °C
CCc1c(C)nc(NC(=O)NS(=O)(=O)c2cccs2)nc1O	179 to 180 °C
O=[N+]([O-])c1ccc(S(=O)(=O)F)cc1	76 to 80 °C
O=c1cc[nH]c(=O)[nH]1	338 °C
CSc1ncccc1-c1nc(CCl)no1	110 to 111 °C
N#CCc1ccc2c(c1)OCO2	43 to 45 °C
O=S(=O)(n1ccnc1)C(F)(F)F	19 to 21 °C
C=NCC#N	129 °C
C=C(C)CCCCCCCCCCCCCCC	9 °C
O=C(O)c1cnn(-c2ccc([N+](=O)[O-])cc2[N+](=O)[O-])c1	260 to 262 °C
Nc1ccncc1[N+](=O)[O-]	203 °C
O=C1OC2(c3ccccc31)c1cc([N+](=O)[O-])c(O)c(Br)c1Oc1c2cc([N+](=O)[O-])c(O)c1Br	275 °C
O=C(O)c1cc(-c2ccco2)on1	151 °C
C=C[N+](=O)[O-]	-55.5 °C
Cc1cc(=O)oc2cc(OC3OCC(O)C(O)C3O)ccc12 (centres undefined)	223 °C
O=Cc1cc2cc(Br)ccc2o1	129 to 130 °C

SMILES	melting point
COc1cc(CCC(C)=NO)ccc1O	82 to 84 °C
CCC1CC(N)(C(=O)O)CC(C)(C)N1O (centres undefined)	230 °C
CC(C=CC=C(C)C=CC1=C(C)CCCC1(C)C)=CC=O	63 °C
CSc1sc(C#N)c2c1C(=O)CC(C)(C)C2	169 to 171 °C
CC(CCC(=O)O)C1CCC2=C3CCC4CC(O)CCC4(C)C3CC(O)C21C (centres undefined)	172 °C
NNC(=O)c1cccc2cc[nH]c12	178 °C
Clc1nccc2sccc12	99 °C
S=C(n1ccnc1)n1ccnc1	96 to 103 °C
O=[N+]([O-])c1cc(C(F)(F)F)ccc1CCl	44 °C
Clc1cc(Cl)c(I)c(Cl)c1	56 to 58 °C
Cc1cccc(C)c1NC(=O)C1CCCCN1C (centres undefined)	150 °C
CCCCCCCCCCCCCC=CC(O)C(CO)NC(=O)CCCCCCCCCCCCCCC (centres undefined)	94 to 95 °C
CC(C)(C)OC(=O)N1CCN(c2ccc(C#N)cc2)CC1	124 to 125 °C
O=S(=O)(Cl)c1ccccc1I	51 to 52 °C
CC1(C)CC(C(N)=O)C(C)(C)N1 (centres undefined)	129 to 131 °C
CC(=O)Nc1cc(C(F)(F)F)cc(C(F)(F)F)c1	161 °C
CC(=CCNc1ncnc2nc[nH]c12)CO	208 °C
CC(C)(Br)C(=O)NC12CC3CC(CC(C3)C1)C2	114 to 115 °C
Cc1ccc(S(=O)(=O)OCC(F)(F)F)cc1	40 °C
CSC(S)=Nc1ccc(Br)cc1	133 to 134 °C
CC(=O)c1csc(-c2cc(C)on2)n1	130 to 132 °C
c1ccc2c(c1)ccc1ncccc12	94 °C
CCC(C)(C#N)N=NC(C)(C#N)CC (centres undefined)	50 °C
OCCCCCCCCCCCl	12.5 °C
O=C1OCCN1N=Cc1ccc([N+](=O)[O-])o1	255 °C

SMILES	melting point
COc1cc(O)c(C(=O)c2ccccc2)cc1S(=O)(=O)O	170 °C
COC(=O)c1nn2ccccc2c1C(=O)OC	72 to 74 °C
O=Cc1ccc(OCc2ccc(Cl)c(Cl)c2)cc1	92 to 93 °C
CC(C)(OCc1ccc(-c2ccc(Cl)cc2)cc1)C(=O)O	154 °C
CC12CCC3C4CCC(=O)C=C4CCC3C1CCC2OC(=O)CCc1ccccc1 (centres undefined)	118 °C
FC(F)(F)c1cc(-c2n[nH]c(=S)[nH]2)cc(C(F)(F)F)c1	280 °C
NC1=NC(=O)C(c2ccccc2)O1 (centres undefined)	256 °C
N[C@@H](CCCC(=O)O)C(=O)O	206 °C
Clc1ccc(C2Nn3c(nnc3-c3ccccc3)S2)cc1 (centres undefined)	196 to 198 °C
CC(C)(C)N(NC(=O)c1ccccc1)C(=O)c1cccc(C(F)(F)F)c1	204 °C
COc1cc(C(=O)c2ccc(Cl)cc2)c([N+](=O)[O-])cc1OC	142 °C
Nc1nc(-c2cccc3ccccc23)cs1	157 °C
COC(=O)c1cnc(Br)s1	63 °C
OCc1csc(-c2cccs2)n1	87 to 90 °C
CC1CCc2cc3c(cc2N1C(=O)c1ccccc1)CCC(C)N3C(=O)c1ccccc1 (centres undefined)	270 °C
CC(CC(=O)O)C1CCC2C3CCC4CCCCC4(C)C3CCC12C (centres undefined)	177 °C
OCc1ccc(F)cc1	23 °C
O=C(C1=NOC2C(=O)N(c3ccccc3[N+](=O)[O-])C(=O)C12)c1ccc(Cl)cc1 (centres undefined)	173 °C
Cc1c(C)c(Br)c2ccccc2c1Br	164 °C
CCOC(=O)C(C#N)=C(SC)SC	70 °C
Cc1nc(-c2ccc(S(=O)(=O)N(C)C)cc2)c(-c2ccc(S(=O)(=O)N(C)C)cc2)o1	208 to 211 °C
O=C(Oc1ccccc1)c1cccnc1	72 °C
CNC(=O)Oc1cc(C)cc(C)c1	99 °C
Nc1ncnc2c1ncn2CCCNC(=O)c1cc([N+](=O)[O-])cc([N+](=O)[O-])c1	234 °C
